Data set [1] relates to scopolamine induced dry eye model. As to the kind of experiment: Scopolamine induced dry eye model, corneal fluorescein staining (Example 3). Format: in vivo, rat. The following applies: single topical 5 μl of 1% (10 mg/mL) on day eight; read day fourteen; score 0 to 4. As to the method:
(§1) Dry eye was induced using scopolamine (Sigma-Aldrich, St. Louis, Mo.), which was continuously and systemically delivered to the animals via an osmotic pump (2ML4 Alzet®; CedarLane, Burlington, Ontario) filled with scopolamine and implanted subcutaneously in the mid dorsal area between the scapulae. The wound was closed with 2-3 wound clips. After the surgery and again the next day, the animals were subcutaneously injected with Carprofen (0.5 mg/100 g) a non-steroidal anti-inflammatory drug and potent, long-acting analgesic in rodents. Animals were anaesthetized before the surgical pump implantation and before all clinical endpoint testing in an Isofluorane 99.9% USP (Abraxis Bioscience, Richmond Hill, Ontario) chamber. Scopolamine was delivered at 12.5 mg/day and, for technical reasons, the data was evaluated at day 14. […]
The clinical signs of corneal dryness were evaluated by fluorescein impregnation of the cornea. […] For each animal, the punctate fluorescent-positive area of the ocular surface was recorded in a blinded fashion. […]

A short description of data set [2]: Maximum solubility in topical dosing solution. The format is physicochemical. The note with it: buffered saline ~pH 7, isotonic; 25.0 mg per mL solution. As to the method:
Compound D3 was prepared using a formulation designed by Mimetogen Pharmaceuticals, which is buffered saline ˜pH 7 (as determined by pH indicator strips, EMD Chemicals). Three topical dosing solutions were prepared as follows: • A topical dosing solution of 0.4% was prepared using 4.0 mg of compound dissolved in 845 μL, of sterile milliQ water. The solution was adjusted to ˜pH 7 with 6.5 μL of 1.0 N NaOH (VWR) using pH indicator strips and made isotonic (0.9% NaCl) by adding 148.5 μL of sterile 1.0 M NaCl. • A topical dosing solution of 1.0% was prepared using 10.0 mg of compound dissolved in 845 μL of sterile milliQ water. […] The solution was adjusted to ˜pH 7 with 20 μL of 1.0 N NaOH. The solution was made isotonic by adding 135 μL of sterile 1.0 M NaCl. All solutions were sonicated for 5 min. All compound D3 solutions were stored refrigerated (2-8° C.) for the duration of the study.

In data set [3] the test system is scopolamine induced dry eye model. Description: Scopolamine induced dry eye model, Schirmer test (Example 3). Format: in vivo, rat. The following applies: single topical instillation of 1% on day eight; measured day thirteen. As to the method: as §1, with “chamber.” for “chamber. Scopolamine was delivered at 12.5 mg/day and, for technical reasons, the data was evaluated at day 14.”
Tear production was measured with Zone-Quick standardized phenol-red threads (FCI Ophthalmics, Marshfield Hills, Mass.) on animals lightly sedated with Isoflurane. […] The length of the stained moistened portion of the thread was measured in millimeters, using the scale provided with the threads to an accuracy of 1 mm. […]

The next data set deals with naïve rats. As to the kind of experiment: Tear mucin production in naïve rats following topical instillation, ELLA (Example 4). Format: in vivo, rat. On the procedure:
Dose-ranging studies were conducted on the topical instillations of compound D3 in stimulating mucin production in naïve rats. Thirty male sprague dawley rats were divided into five groups of six rats per group and were treated bilaterally once every hour for six consecutive hours with either saline, 0.4% of compound D3, 1.0% of compound D3, 2.5% of compound D3 and 0.00053% of NGF. Once anesthetized, each animal received a 5 μL topical instillation of test article into the lower conjunctival sac of both eyes using a calibrated micropipette.
Tear fluid washings from both eyes were pooled and were collected prior to treatment and following six hourly instillations of saline, compound D3 and NGF. All tear fluid washings were evaluated for mucin concentration by an enzyme-linked lectin assay (ELLA).
The mean and standard deviation (SD) were used to characterize the data. The differences in mucin concentration was calculated from treated minus baseline from groups of rats. Continuous mucin changes between two groups from baseline were evaluated using the paired t test. The mucin changes between more than two treatment groups were analyzed using an analysis of variance. The median mucin changes between treatment groups were compared against a theoretical median of zero using the […]. A two-sided test with P<0.05 was considered to be statistically significant. Statistical analysis were performed using GraphPad Prism 4.0C (GraphPad Software Inc., La Jolla, Calif.).

The mark [4] stands for this setting: 2.5%, 5 μL bilaterally once every hour for six hours.

Data on one molecule can be found in patent US9707267B2, “Beta-turn peptidomimetic cyclic compounds for treating dry eye” (Mimetogen Pharmaceuticals, Inc., priority 2008, dated 2017).

On to `NCCCC[C@@H]1NC(=O)[C@H](CCC(=O)O)NC(=O)c2cc([N+](=O)[O-])ccc2OCCC(C(=O)NCC(=O)O)NC1=O` (stereo partly shown) [Compound D3], for which the “corneal fluorescein staining, mean score” value in data set [1] was found to be 1.1±0.1 score. The molecule further gave a maximum solubility in data set [2] of 2.5%. The “aqueous tear production, Schirmer test (in words)” value in data set [3] is reported as “no effect on aqueous tear production”. The “mean changes in mucin concentration (in words)” value in the data set on naïve rats (0.4%, 1.0%, 2.5%, six hourly instillations) was “dose-dependent”. Further, the “tear mucin concentration at baseline” value in the data set on naïve rats (2.5% group, prior to treatment) came to 3.0 ± 1.9 ng/µL. Also, in the data set with naïve rats (setting [4]), the “change in mucin concentration from baseline” value worked out at 4.0 ± 3.5 ng/µL and the “tear mucin concentration after treatment” value came out at 7.0 ± 4.5 ng/µL.
